The nature of data set [1]: Liver Microsomal Clearance Assay, mouse. The data set is classed as in vitro ADME. The settings on record: extraction ratio, mouse liver microsomes. Here is the method: (§1) Liver Microsomal Clearance Assay
(§2) The in vitro microsomal clearance assay is designed to assess potential risks associated with hepatic metabolic stability of compounds. The test compound (1 μM) was incubated with liver microsomes (0.5 mg/mL) from different species (mouse, rat, monkey, dog and human) and NADPH (1 mM) in 100 mM potassium phosphate buffer at 37° C. At specific reaction time points (0, 5, 10 and 30 minutes), reaction aliquots were removed and reactions were terminated by addition of ice cold acetonitrile containing mass spectrometry internal standard. The samples were centrifuged and the supernatants were analyzed by LC-MS/MS. In vitro metabolic half-life (t1/2, min) and intrinsic clearance (CLint, μL/min/mg) are based on the rate and extent of metabolism of the test compound as determined by the disappearance of the parent compound from the reaction mixture. These values may be scaled to predict hepatic metabolic clearance rate (CLh, mL/min/kg) and extraction ratio (ER, expressed as a ratio of the predicted hepatic metabolic clearance to hepatic blood flow in that species). In general, compounds with high predicted CLint or ER in vitro are considered to be at high risk for exposure-limiting metabolism in vivo.

A further data set has as its system A375 cells. Briefly: In Vivo Efficacy - 14 Day A375 Mouse Xenograft Model. As to the method: A375 cells were grown in sterile conditions in a 37° C. incubator with 5% CO2 for two to four weeks. The cells were cultured in RPMI-1640 media supplemented with 10% FBS. Cells were passaged twice weekly with 0.05% Trypsin/EDTA. On the day of implant, cells were harvested in HBSS (Hank's Balanced Salt Solution). Female Nu/Nu mice (Charles River, 10-11 weeks at start of study) were implanted with 5×10^6 A375 cells/mouse in 50% matrigel, 0.2 mL SQ right flank on day 1. At 19 days post-implant, mice were randomized into 6 groups (9 mice per group), with an average tumor volume of 215 mm^3 and average body weight of 24 g. Test compound was dosed BID for 14 days commencing on day 19 using a dosing volume 0.2 mL per dose, with compound formulated at the appropriate concentration to attain the desired dose level. Clinical observations were made daily. Tumor volume and body weight were measured twice weekly.
Tumor volume results were assessed at 14 days post-first dose. Partial response is defined as having tumor growth 20-50% of control tumor growth. Stable disease is defined as having final tumor volume within +/−20% of initial tumor size. Partial regression is defined as having final tumor volume<80% of initial tumor volume.

The nature of data set [2]: Liver Microsomal Clearance Assay, human. The class given is in vitro ADME. The settings on record: extraction ratio, human liver microsomes. As to the method: as §1, §2
(Microsomes from liver hold many membrane-bound enzymes, among them those of drug oxidation.)

For another data set, the system named is SW620 cells. Description: SW620 Cell Viability Assay (Cell Titer Glo). The class given is cell-based. The settings on record: FIG. 1, compound alone. Here is the method: The present invention also includes combinations of the BRaf inhibitors disclosed in this invention with other agents. In particular, the present invention provides for combinations with MEK1/2 inhibitors. FIG. 1 illustrates that the addition of a MEK small molecule inhibitor can reverse the induced ERK signaling, cell growth and transformation caused by a Raf small molecule inhibitor.
SW620 cells were seeded in 1640 RPMI+10% FBS at a density of 1500 cells per 96-well in black walled, clear bottom tissue culture treated plates. Test compounds were serially diluted in DMSO then added to the cells (final DMSO concentration of 0.1%) and incubated at 37° C. and 5% CO2 for 4 days. To measure cell viability, cell plates were brought to room temperature, culture media was removed, and 200 μl of Cell Titer-Glo reagent (Promega, kit components mixed as per the manufacturer's protocol then diluted 1:2 with growth media) was added to each well. Plates were shaken for 5 minutes, then incubated at room temperature for 5 minutes, and the luminescence was measured (Trilux, Perkin Elmer).
For orientation: Cellular ATP, detected with luciferase, serves as a proxy for viable cell number.

The nature of data set [3]: In Vivo Pharmacokinetics Assay in mouse. As to conditions: for clearance at 24 h: IV 2 mg/kg. Here is the method:
Full pharmacokinetics study: Male Balb/c mice (n=3, body weights 22-25 g) or male Wistar rats (n=3, body weights 250-300 g) were administered the test compound intravenously via the lateral tail vein or orally via gavage. The formulation was typically a 2.5 mg/mL solution of the compound in 75% PEG300 and 25% D5W. Six blood samples of 50 μL each were collected serially for 24 h after dosing. The blood samples were centrifuged to separate the plasma. Plasma samples were analyzed and quantified by LC-MS/MS.
Rapid pharmacokinetics study: Male Balb/c mice (n=3, body weights 22-25 g) or male Wistar rats (n=3, body weights 250-300 g) were administered the test compound intravenously (IV) via the lateral tail vein or orally (PO) via gavage. The formulation was typically a 2.5 mg/mL solution of the compound in 75% PEG300 and 25% D5W. Six blood samples of 50 μL each were collected serially for 24 h after dosing. Blood samples were centrifuged and plasma separated and pooled across the three animals at each time point per dose route. Plasma samples were analyzed and quantified by LC-MS/MS.
For both full and rapid pharmacokinetics studies, the following parameters were calculated by non-compartmental regression analysis using Winnonlin 5.0 software (Pharsight, Mountain View, Calif., USA): plasma clearance (Cl), plasma maximum concentration (Cmax), plasma area-under-the-concentration-time-curve (AUC0-inf), and percent oral bioavailability (F %).

Another data set deals with B-Raf V600E (Homo sapiens (Human), UniProt P15056, V600E). Description: B-Raf V600E/Mek Amplified Luminescence Proximity Homogeneous Assay (B-Raf V600E biochemical). The settings on record: read-out: BRAF V600E biochemical IC50. As to the method: The plate was incubated for 60 minutes at room temperature.
Sequence of B-Raf V600E (P15056 whole entry V600E): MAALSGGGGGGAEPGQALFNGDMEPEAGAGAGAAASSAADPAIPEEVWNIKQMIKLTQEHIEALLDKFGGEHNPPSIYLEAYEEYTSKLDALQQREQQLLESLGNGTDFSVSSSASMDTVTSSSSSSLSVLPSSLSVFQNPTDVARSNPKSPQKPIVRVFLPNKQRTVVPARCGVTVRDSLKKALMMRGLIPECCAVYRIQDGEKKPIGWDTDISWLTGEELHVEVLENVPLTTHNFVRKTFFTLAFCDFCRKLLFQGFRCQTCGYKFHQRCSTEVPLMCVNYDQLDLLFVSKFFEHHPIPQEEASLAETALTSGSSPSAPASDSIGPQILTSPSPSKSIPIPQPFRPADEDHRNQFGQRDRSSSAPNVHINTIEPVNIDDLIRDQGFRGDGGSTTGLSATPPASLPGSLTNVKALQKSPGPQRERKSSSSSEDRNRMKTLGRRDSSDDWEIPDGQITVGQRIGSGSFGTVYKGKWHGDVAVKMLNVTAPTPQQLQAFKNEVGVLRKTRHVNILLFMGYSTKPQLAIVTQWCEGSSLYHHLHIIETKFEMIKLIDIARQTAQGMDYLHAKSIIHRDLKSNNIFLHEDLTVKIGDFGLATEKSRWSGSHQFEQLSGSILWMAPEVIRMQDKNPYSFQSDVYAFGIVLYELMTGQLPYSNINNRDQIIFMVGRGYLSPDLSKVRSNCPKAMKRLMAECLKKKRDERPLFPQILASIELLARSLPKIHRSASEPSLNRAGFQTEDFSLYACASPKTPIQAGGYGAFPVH
The B-Raf kinase activity reaction was started by the addition of 10 μl per well of 2×ATP (10 μM) diluted in assay buffer. After 3 hours, the reactions were stopped with the addition of 10 μl of stop reagent (60 mM EDTA, 0.01% Tween20). Phosphorylated product was measured using a rabbit anti-p-MEK (Cell Signaling, #9121) antibody and the Alpha Screen IgG (ProteinA) detection Kit (PerkinElmer #6760617R), by the addition of 30 μl to the well of a mixture of the antibody (1:2000 dilution) and detection beads (1:1000 dilution of both beads) in bead buffer (50 mM Tris, pH 7.5, 0.01% Tween20). The additions were carried out under dark conditions to protect the detection beads from light. A lid was placed on top of the plate and the plate was incubated for 1 hour at room temperature. The luminescence was read on a PerkinElmer Envision instrument. The concentration of each compound for 50% inhibition (IC50) was calculated by non-linear regression using XL Fit data analysis software.

[4] abbreviates: male, Balb/c, plasma, 10 mg/kg, PO/IV 10/2 mg/kg.
Where [5] appears, read: male, Balb/c, plasma, PO 10 mg/kg.
Where [6] appears, read: male, Balb/c, plasma, 5 mg/kg, PO/IV 5/2 mg/kg, n = 1.
[7] abbreviates: male, Balb/c, plasma, PO 5 mg/kg, n = 1.

Bounds are passed on as bounds.

The term bioavailability denotes the share of a dose that reaches the circulation, judged against a reference dose that is usually intravenous. A high value points to much systemic uptake. One may read the clearance as the volume of plasma or blood freed of the substance per unit of time. High values mean efficient removal, low ones inefficient removal. The Cmax is the highest concentration seen after dosing. One may read the AUC as concentration integrated over time. A low value points to less exposure. With `COC(=O)N[C@@H](C)CNc1nccc(-c2cn(C(C)C)nc2-c2cc(Cl)cc(NS(C)(=O)=O)c2F)n1` [Compound 9, Methyl N-[(2S)-1-({4-[3-(5-chloro-2-fluoro-3-methanesulfonamidophenyl)-1-(propan-2-yl)-1H-pyrazol-4-yl]pyrimidin-2-yl}amino)propan-2-yl]carbamate], in data set [1], the “ER Mouse” value is 0.48. For the same compound, the Tumor volume result in the data set on A375 cells (1 mg/kg bid×14, 14 days post-first dose) is recorded as “partial response (Partial response is defined as having tumor growth 20-50% of control tumor growth)”; with A375 cells (3 mg/kg bid×14, 14 days post-first dose) it was “stable disease (Stable disease is defined as having final tumor volume within +/−20% of initial tumor size)”; in the data set with A375 cells (10 mg/kg bid×14, 14 days post-first dose) it was “partial regression (Partial regression is defined as having final tumor volume<80% of initial tumor volume)”; in the data set with A375 cells (20 mg/kg bid×14, 14 days post-first dose), “partial regression (Partial regression is defined as having final tumor volume<80% of initial tumor volume)”. Also, in data set [2], the “ER Human” value is listed as under 0.21. Also, the “cellular proliferation in Cell Titer Glo assay” value with SW620 cells is on record as “induction in cellular proliferation”. Also, the “PO AUC” value in data set [3] (PO 10 mg/kg) is 30 ± 4 µM·h. For the same compound, the bioavailability at 24 h in data set [3] (setting [4]) came to 43 ± 6%. Besides, the clearance at 24 h in data set [3] (male, Balb/c, plasma) amounted to 4.3 ± 0.4 mL/min/kg. Also, the peak concentration (Cmax) at 24 h in data set [3] (setting [5]) amounted to 27000 ± 4000 nM. In data set [3] (male, Balb/c, plasma, oral dose of 10 mg/kg), the AUC is 30 ± 4 µM·h.
One may read the IC50 as the concentration that inhibits the measured activity by half. For the compound `CCCS(=O)(=O)Nc1ccc(F)c(-c2nn(C(C)C)cc2-c2ccnc(NC[C@H](C)NC(=O)OC)n2)c1F` [Compound 7, Methyl N-[(2S)-1-[(4-{3-[2,6-difluoro-3-(propane-1-sulfonamido)phenyl]-1-(propan-2-yl)-1H-pyrazol-4-yl}pyrimidin-2-yl)amino]propan-2-yl]carbamate], the “ER Mouse” value in data set [1] came to 0.91. The “ER Human” value in data set [2] is 0.65. In addition, the IC50 at B-Raf V600E came out at 0.7 nM. Moreover, the bioavailability at 24 h in data set [3] (setting [4]) was 8 ± 7%. This compound yielded a clearance at 24 h in data set [3] (male, Balb/c, plasma) of 99 ± 13 mL/min/kg. In data set [3] (setting [5]), this compound displayed an area under the curve (AUC) at 24 h of 0.24 ± 0.21 µM·h and a Cmax at 24 h of 150 ± 70 nM.
As for `COC(=O)N[C@@H](C)CNc1nccc(-c2cn(C(C)C)nc2-c2c(F)ccc(NS(C)(=O)=O)c2F)n1` [Compound 6, methyl N-[(2S)-1-({4-[3-(2,6-difluoro-3-methanesulfonamidophenyl)-1-(propan-2-yl)-1H-pyrazol-4-yl]pyrimidin-2-yl}amino)propan-2-yl]carbamate], the “ER Human” value in data set [2] was determined as 0.69. In addition, the IC50 on B-Raf V600E was 3.9 nM. In data set [3] (setting [4]), this compound gave a bioavailability at 24 h of 15 ± 3%. The compound further gave a clearance at 24 h in data set [3] (male, Balb/c, plasma) of 61 ± 6 mL/min/kg. Moreover, in data set [3] (setting [5]), the area under the curve (AUC) at 24 h amounted to 1.1 ± 0.2 µM·h and the maximum concentration (Cmax) at 24 h was found to be 600 ± 20 nM.
As to `CCCS(=O)(=O)Nc1cc(Cl)cc(-c2nn(C(C)C)cc2-c2ccnc(NC[C@H](C)NC(=O)OC)n2)c1F` [Compound 1, Methyl N-[(2S)-1-[(4-{3-[5-chloro-2-fluoro-3-(propane-1-sulfonamido)phenyl]-1-(propan-2-yl)-1H-pyrazol-4-yl}pyrimidin-2-yl)amino]propan-2-yl]carbamate], the “ER Mouse” value in data set [1] came out at 0.79. For the same compound, the “ER Human” value in data set [2] was determined as 0.66. The bioavailability at 24 h in data set [3] (setting [6]) amounted to 46%. This compound displayed a clearance at 24 h in data set [3] (male, Balb/c, plasma) of 7 mL/min/kg. In data set [3] (setting [7]), the AUC at 24 h is 9.7 µM·h and the Cmax at 24 h is 7400 nM.
Regarding `CNc1nccc(-c2cn(C(C)C)nc2-c2cc(Cl)cc(NS(C)(=O)=O)c2F)n1` [Compound 29, N-(5-chloro-2-fluoro-3-{4-[2-(methylamino)pyrimidin-4-yl]-1-(propan-2-yl)-1H-pyrazol-3-yl}phenyl)methanesulfonamide], at B-Raf V600E, the IC50 is 8 nM.
Still for that read-out and setting: for `CCCS(=O)(=O)Nc1cc(Cl)cc(-c2nn(C(C)C)cc2-c2ccnc(NC[C@H](C)NC(=O)OC)n2)c1` [Compound 5, methyl N-[(2S)-1-[(4-{3-[3-chloro-5-(propane-1-sulfonamido)phenyl]-1-(propan-2-yl)-1H-pyrazol-4-yl}pyrimidin-2-yl)amino]propan-2-yl]carbamate] the value was 0.2 nM.
As to `CCCS(=O)(=O)Nc1cccc(-c2nn(C(C)C)cc2-c2ccnc(NC[C@H](C)NC(=O)OC)n2)c1F` [Compound 3, methyl N-[(2S)-1-[(4-{3-[2-fluoro-3-(propane-1-sulfonamido)phenyl]-1-(propan-2-yl)-1H-pyrazol-4-yl}pyrimidin-2-yl)amino]propan-2-yl]carbamate], the “ER Mouse” value in data set [1] worked out at 0.85. The “ER Human” value in data set [2] was 0.69. Besides, in data set [3] (setting [6]), the bioavailability at 24 h was determined as 6%. In data set [3] (male, Balb/c, plasma), the clearance at 24 h turned out to be 51 mL/min/kg. In addition, in data set [3] (setting [7]), the AUC at 24 h was 0.2 µM·h and the peak level (Cmax at 24 h) was 70 nM.
For `CCn1cc(-c2ccnc(NC[C@H](C)NC(=O)OC)n2)c(-c2cc(Cl)cc(NS(C)(=O)=O)c2F)n1` [Compound 11, methyl N-[(2S)-1-({4-[3-(5-chloro-2-fluoro-3-methanesulfonamidophenyl)-1-ethyl-1H-pyrazol-4-yl]pyrimidin-2-yl}amino)propan-2-yl]carbamate], the IC50 on B-Raf V600E stood at 0.5 nM.
With `COC(=O)N[C@@H](C)CNc1nccc(-c2cn(C(C)C)nc2-c2cccc(NS(C)(=O)=O)c2F)n1` [Compound 4, methyl N-[(2S)-1-({4-[3-(2-fluoro-3-methanesulfonamidophenyl)-1-(propan-2-yl)-1H-pyrazol-4-yl]pyrimidin-2-yl}amino)propan-2-yl]carbamate], in data set [1], the “ER Mouse” value turned out to be 0.40. Moreover, the “ER Human” value in data set [2] is reported as under 0.31. In addition, the IC50 on B-Raf V600E is 2.3 nM. The same compound gave a bioavailability at 24 h in data set [3] (setting [4]) of 36 ± 6%. In data set [3] (male, Balb/c, plasma), this compound yielded a clearance at 24 h of 41 ± 9 mL/min/kg. In data set [3] (setting [5]), this compound displayed an AUC at 24 h of 3 ± 0.5 µM·h and a Cmax at 24 h of 2000 ± 500 nM.
In the case of `COC(=O)N[C@@H](C)CNc1nccc(-c2cn(C(C)C)nc2-c2cc(NS(C)(=O)=O)c(C)c(OC)c2)n1` [Compound 27], the concentration for half-maximal inhibition (IC50) on B-Raf V600E turned out to be 390 nM.

The record behind these values is US9314464B2, “Compounds and compositions as protein kinase inhibitors” (Novartis AG, priority 2009, dated 2016).
